This is an account of results in ChEMBL document CHEMBL5724914, “Linking interpersonal differences in gut microbiota composition and drug biotransformation activity” (2024).

The nature of data set [1]: The drug is tested on Z-020 corresponding to rabbit gut metagenome with ENA study accession number: PRJEB37062 and ENA sample accession number: ERS12561819 for biotransformation under anaerobic condition. The drug concentrations were measured over 9 timepoints collected between 0 and 24 hours of incubation by liquid-chromatography-coupled mass spectrometry (LC–MS). Conditions: 2 µM.

For data set [2] the following is noted: human gut metagenome, 24 h, 2 µM.
The nature of data set [3]: The drug is tested on Z-018 corresponding to pig gut metagenome with ENA study accession number: PRJEB37062 and ENA sample accession number: ERS12561817 for biotransformation under anaerobic condition. The drug concentrations were measured over 9 timepoints collected between 0 and 24 hours of incubation by liquid-chromatography-coupled mass spectrometry (LC–MS). As to conditions: 2 µM.

For data set [4] the following is noted: human gut metagenome, 24 h, 2 µM. The source holds these as a separate data set.
Data set [5] in a line: The drug is tested on WLS-098 corresponding to human gut metagenome with ENA study accession number: PRJEB37062 and ENA sample accession number: ERS12561754 for biotransformation under anaerobic condition. The drug concentrations were measured over 9 timepoints collected between 0 and 24 hours of incubation by liquid-chromatography-coupled mass spectrometry (LC–MS). Conditions: 2 µM.

The nature of data set [6]: The drug is tested on Z-028 corresponding to mouse gut metagenome with ENA study accession number: PRJEB37062 and ENA sample accession number: ERS12561827 for biotransformation under anaerobic condition. The drug concentrations were measured over 9 timepoints collected between 0 and 24 hours of incubation by liquid-chromatography-coupled mass spectrometry (LC–MS). Conditions: 2 µM.

Data set [7] in a line: The drug is tested on Z-029 corresponding to rat gut metagenome with ENA study accession number: PRJEB37062 and ENA sample accession number: ERS12561828 for biotransformation under anaerobic condition. The drug concentrations were measured over 9 timepoints collected between 0 and 24 hours of incubation by liquid-chromatography-coupled mass spectrometry (LC–MS). As to conditions: 2 µM.

Data set [8] in a line: The drug is tested on Z-019 corresponding to rat gut metagenome with ENA study accession number: PRJEB37062 and ENA sample accession number: ERS12561818 for biotransformation under anaerobic condition. The drug concentrations were measured over 9 timepoints collected between 0 and 24 hours of incubation by liquid-chromatography-coupled mass spectrometry (LC–MS). Conditions: 2 µM.

A short description of data set [9]: The drug is tested on Z-022 corresponding to mouse gut metagenome with ENA study accession number: PRJEB37062 and ENA sample accession number: ERS12561821 for biotransformation under anaerobic condition. The drug concentrations were measured over 9 timepoints collected between 0 and 24 hours of incubation by liquid-chromatography-coupled mass spectrometry (LC–MS). As to conditions: 2 µM.

Data set [10] can be described thus: The drug is tested on WLS-069 corresponding to human gut metagenome with ENA study accession number: PRJEB37062 and ENA sample accession number: ERS12561748 for biotransformation under anaerobic condition. The drug concentrations were measured over 9 timepoints collected between 0 and 24 hours of incubation by liquid-chromatography-coupled mass spectrometry (LC–MS). As to conditions: 2 µM.

The nature of data set [11]: The drug is tested on Z-008 corresponding to metagenome with ENA study accession number: PRJEB37062 and ENA sample accession number: ERS12561808 for biotransformation under anaerobic condition. The drug concentrations were measured over 9 timepoints collected between 0 and 24 hours of incubation by liquid-chromatography-coupled mass spectrometry (LC–MS). As to conditions: 2 µM.

Data set [12] in a line: The drug is tested on WLS-039 corresponding to human gut metagenome with ENA study accession number: PRJEB37062 and ENA sample accession number: ERS12561746 for biotransformation under anaerobic condition. The drug concentrations were measured over 9 timepoints collected between 0 and 24 hours of incubation by liquid-chromatography-coupled mass spectrometry (LC–MS). As to conditions: 2 µM.

The conditions of data set [13]: human gut metagenome, 24 h, 2 µM. This is another data set of the same source.
The nature of data set [14]: The drug is tested on WLS-006 corresponding to human gut metagenome with ENA study accession number: PRJEB37062 and ENA sample accession number: ERS12561741 for biotransformation under anaerobic condition. The drug concentrations were measured over 9 timepoints collected between 0 and 24 hours of incubation by liquid-chromatography-coupled mass spectrometry (LC–MS). Conditions: 2 µM.

For data set [15] the following is noted: human gut metagenome, 24 h, 2 µM. This is another data set of the same source.
For data set [16] the following is noted: human gut metagenome, 24 h, 2 µM. The source holds these as a separate data set.
The conditions of data set [17]: human gut metagenome, 24 h, 2 µM. The source holds these as a separate data set.
The nature of data set [18]: The drug is tested on WLS-038 corresponding to human gut metagenome with ENA study accession number: PRJEB37062 and ENA sample accession number: ERS12561745 for biotransformation under anaerobic condition. The drug concentrations were measured over 9 timepoints collected between 0 and 24 hours of incubation by liquid-chromatography-coupled mass spectrometry (LC–MS). As to conditions: 2 µM.

A short description of data set [19]: The drug is tested on WLS-310 corresponding to human gut metagenome with ENA study accession number: PRJEB37062 and ENA sample accession number: ERS12561785 for biotransformation under anaerobic condition. The drug concentrations were measured over 9 timepoints collected between 0 and 24 hours of incubation by liquid-chromatography-coupled mass spectrometry (LC–MS). As to conditions: 2 µM.

A short description of data set [20]: The drug is tested on WLS-073 corresponding to human gut metagenome with ENA study accession number: PRJEB37062 and ENA sample accession number: ERS12561749 for biotransformation under anaerobic condition. The drug concentrations were measured over 9 timepoints collected between 0 and 24 hours of incubation by liquid-chromatography-coupled mass spectrometry (LC–MS). Conditions: 2 µM.
Note: call rule not given here.

With `CCc1oc2ccccc2c1C(=O)c1cc(Br)c(O)c(Br)c1` [BENZBROMARONE], the “Bacterial Biotransformation” value in [1] is on record as “Compound metabolized”; in data set [2], “Compound NOT metabolized”; in [3], “Compound metabolized”; in [4] it was “Compound metabolized”; in [5] it was “Compound metabolized”; in data set [6], “Compound metabolized”. Besides, the “Bacterial Biotransformation” value is given as “Compound NOT metabolized” in [7]; “Compound NOT metabolized” in data set [8]; “Compound NOT metabolized” in data set [9]; “Compound metabolized” in [10]; “Compound NOT metabolized” in [11]; “Compound metabolized” in [12]. The “Bacterial Biotransformation” value in [13] is recorded as “Compound metabolized”; in [14], “Compound metabolized”; in [15], “Compound metabolized”; in data set [16], “Compound metabolized”; in data set [17], “Compound NOT metabolized”; in data set [18], “Compound metabolized”. The “Bacterial Biotransformation” value in [19] is “Compound metabolized”.
As to `COC1=C(OC)C(=O)C(CCCCCCCCCCO)=C(C)C1=O` [IDEBENONE], the “Bacterial Biotransformation” value in [1] was “Compound metabolized”; in [3] it was “Compound metabolized”; in data set [20], “Compound metabolized”; in data set [6], “Compound metabolized”; in data set [7], “Compound NOT metabolized”; in data set [8], “Compound NOT metabolized”. Moreover, the “Bacterial Biotransformation” value is “Compound NOT metabolized” in data set [9]; “Compound metabolized” in [10]; “Compound metabolized” in data set [12]; “Compound NOT metabolized” in data set [13]; “Compound metabolized” in data set [15]; “Compound metabolized” in data set [17]. Further, the “Bacterial Biotransformation” value in [18] and in data set [19] was “Compound metabolized” throughout.
Take `Cc1cc2c(s1)Nc1ccccc1N=C2N1CCN(C)CC1` [OLANZAPINE]: the “Bacterial Biotransformation” value in [1] is recorded as “Compound NOT metabolized”; in data set [2], “Compound NOT metabolized”; in [3] it was “Compound NOT metabolized”; in data set [4], “Compound metabolized”; in [6], “Compound NOT metabolized”; in data set [7], “Compound NOT metabolized”. Moreover, the “Bacterial Biotransformation” value in data set [8], in data set [9], in [10], in data set [11], in data set [12] and in [13] was “Compound NOT metabolized” each time. Also, the “Bacterial Biotransformation” value is reported as “Compound NOT metabolized” in data set [14]; “Compound metabolized” in data set [15]; “Compound metabolized” in data set [16]; “Compound NOT metabolized” in data set [17]; “Compound NOT metabolized” in data set [18]; “Compound NOT metabolized” in data set [19].
Turning to `COc1ccc(Cc2nccc3cc(OC)c(OC)cc23)cc1OC` [PAPAVERINE], the “Bacterial Biotransformation” value in data set [1] is listed as “Compound NOT metabolized”; in [2], “Compound metabolized”; in data set [3], “Compound metabolized”; in data set [4], “Compound metabolized”; in [6], “Compound NOT metabolized”; in data set [7], “Compound NOT metabolized”. In addition, the “Bacterial Biotransformation” value was “Compound NOT metabolized” in data set [8]; “Compound metabolized” in data set [9]; “Compound metabolized” in [10]; “Compound NOT metabolized” in data set [11]; “Compound metabolized” in data set [12]; “Compound metabolized” in data set [13]. Besides, the “Bacterial Biotransformation” value in [14] is listed as “Compound NOT metabolized”; in data set [15], “Compound metabolized”; in [16], “Compound metabolized”; in [17], “Compound metabolized”; in [18], “Compound NOT metabolized”; in [19], “Compound metabolized”.
As to `CC(=O)OCC(=O)NCCCOc1cccc(CN2CCCCC2)c1` [ROXATIDINE ACETATE], the “Bacterial Biotransformation” value in [1], in data set [2], in data set [3], in [4], in [5] and in data set [20] was “Compound metabolized” each time. The “Bacterial Biotransformation” value is recorded as “Compound metabolized” in data set [6]; “Compound metabolized” in [7]; “Compound NOT metabolized” in [8]; “Compound metabolized” in data set [9]; “Compound metabolized” in data set [11]; “Compound metabolized” in data set [12]. Besides, the “Bacterial Biotransformation” value in data set [13] is “Compound NOT metabolized”; in data set [15], “Compound metabolized”; in [16], “Compound metabolized”; in data set [17] it was “Compound metabolized”; in [18], “Compound metabolized”; in data set [19], “Compound metabolized”.
With `CN[C@H]1CC[C@@H](c2ccc(Cl)c(Cl)c2)c2ccccc21` [SERTRALINE], the “Bacterial Biotransformation” value in data set [1] is on record as “Compound metabolized”; in [2], “Compound metabolized”; in [3] it was “Compound metabolized”; in [4], “Compound metabolized”; in [5], “Compound metabolized”; in data set [6], “Compound NOT metabolized”. The “Bacterial Biotransformation” value in data set [7] was “Compound NOT metabolized”; in data set [8], “Compound NOT metabolized”; in data set [9] it was “Compound NOT metabolized”; in data set [10], “Compound metabolized”; in data set [11] it was “Compound NOT metabolized”; in [12], “Compound metabolized”. The “Bacterial Biotransformation” value in data set [13] was “Compound NOT metabolized”; in [14], “Compound metabolized”; in [15], “Compound metabolized”; in [16] it was “Compound metabolized”; in [17], “Compound NOT metabolized”; in data set [18] it was “Compound metabolized”. Besides, the “Bacterial Biotransformation” value in [19] is given as “Compound metabolized”.
